Here are results for 22 compounds from the SangsterLogP compilation.

A short description of data set [1]: method code SF, from DOI: 10.1016/0223-5234(96)88244-4. To be noted: pH 7.4.

For the compound `CC(C)NC(=NC#N)NS(=O)(=O)c1cnccc1Nc1cccc(Cl)c1`, the logP – broadly, the decadic logarithm of the partition coefficient of the neutral form, usually between octanol and water – turned out to be 1.14.

As to `N#CN=C(NS(=O)(=O)c1cnccc1NC1CCCCC1)N1CCCC1`, the logD (in general, the decadic logarithm of the distribution of all forms, ionised or not, between an organic phase and buffer at a given pH) in data set [1] worked out at 1.07.

`CC(C)NC(=NC#N)NS(=O)(=O)c1cnccc1Nc1ccc(Cl)cc1` came in with a logP of 1.37.

The compound `CC(C)NC(=NC#N)NS(=O)(=O)c1cnccc1NC1CC1` yielded a logP of -0.77.

In turn, `N#CN=C(NS(=O)(=O)c1cnccc1NC1CCCCCC1)N1CCCC1` gave a logP of 1.65.

With `Cc1ccc(Nc2ccncc2S(=O)(=O)NC(=NC#N)NC(C)C)cc1`, the logP is 0.91.

`CCCNc1ccncc1S(=O)(=O)NC(=NC#N)NC(C)C` came in with a logP of -0.43.

The compound `Cc1ccccc1Nc1ccncc1S(=O)(=O)NC(=NC#N)NC(C)C` showed a logP of 0.67.

For the compound `CC(C)CNc1ccncc1S(=O)(=O)NC(=NC#N)NC(C)C`, the logP was 0.1.

`CC(C)NC(=NC#N)NS(=O)(=O)c1cnccc1Nc1cccc(Br)c1` registered a logP of 1.27.

As for `CCNc1ccncc1S(=O)(=O)NC(=NC#N)NC(C)C`, the logP was -1.02.

`CC(C)N=C(NC#N)NS(=O)(=O)c1cnccc1Nc1cccc(F)c1` gave a logP of 0.59.

Turning to `CC(C)NC(=NC#N)NS(=O)(=O)c1cnccc1NC1CCCC1`, the logP was 0.2.

Compound `CNc1ccncc1S(=O)(=O)NC(=NC#N)NC(C)C` came in with a logP of -1.43.

`CCNC(=NC#N)NS(=O)(=O)c1cnccc1NC1CCCCC1` displayed a logP of 0.16.

For the compound `CC(C)NC(=NC#N)NS(=O)(=O)c1cnccc1Nc1cccc(I)c1`, the logP came out at 1.51.

Consider `CC(C)NC(=NC#N)NS(=O)(=O)c1cnccc1NC1CCCCC1`, for which the logP was 0.75.

For the compound `CC(C)NC(=NC#N)NS(=O)(=O)c1cnccc1NC1CCCCCCCCCCC1`, the logP worked out at 3.73.

`CC(C)NC(=NC#N)NS(=O)(=O)c1cnccc1NC1CCCCCCC1`: the logP was found to be 1.8.

Consider `Cc1cccc(Nc2ccncc2S(=O)(=O)NC(=NC#N)NC(C)C)c1`, for which the logP came out at 0.86.

Compound `CCNC(=NC#N)NS(=O)(=O)c1cnccc1NC1CCCCCC1` returned a logP of 0.75.

The compound `N#CN=C(NS(=O)(=O)c1cnccc1NC1CCCCCCC1)N1CCCC1` had a logP of 2.15.
